Values quoted from earlier work, collected in patent US20090325918A1, “Synthesis and separation of optically active isomers and cyclopropyl derivatives of spironolactone and their biological action” (priority 2008, published 2009).

Experiments:
hypertensive patients = hypertensive patients using spironolactone for therapy; 1% of men in the placebo group
[1] = tested on: patients with congestive heart failure (CHF)

Compound: CC(=O)S[C@@H]1CC2=CC(=O)CC[C@]2(C)[C@H]2CC[C@@]3(C)[C@@H](CC[C@@]34CCC(=O)O4)[C@H]12 [spironolactone, 17-hydroxy-7-alpha-mercapto-3-oxo-17-alpha-pregn-4-ene-21-carboxylic acid gamma-lactone acetate]
- Water solubility: poor
- Gynecomastia or tender breast enlargement, occurrence in patients (hypertensive patients): 10%
- Reduction in mortality (risk of death) ([1]; CHF patients taking digoxin and a loop diuretic, spironolactone with digitalis and ACE inhibitor): 30%
- Patients who discontinued treatment because of adverse events ([1]; spironolactone group): 8%
- Frequency of hospitalization for worsening heart failure, lower than in the placebo group ([1]; spironolactone treated group vs placebo group): 35%
